Data taken from ChEMBL document CHEMBL1128828, “Convergent approach to water soluble camptothecin derivatives” (1995).

How the values were obtained:
Format in all cases: functional
Settings in all cases: route intravenous
Mus musculus [1] = test: Inhibitory effect on the growth of P388/CPT tumor cell line transplanted subcutaneously into mice at dose of 4 mg/kg/day x 5 administered intravenously
Mus musculus [2] = test: Inhibitory effect on the growth of Colon 26 tumor cell line transplanted subcutaneously into mice at dose of 4 mg/kg/day x 5 administered intravenously
Mus musculus [3] = test: Inhibitory effect on the growth of P388/CPT tumor cell line transplanted subcutaneously into mice at dose of 2 mg/kg/day x 5 administered intravenously
Mus musculus [4] = test: Inhibitory effect on the growth of Colon 26 tumor cell line transplanted subcutaneously into mice at dose of 2 mg/kg/day x 5 administered intravenously

| SMILES | T/C (Mus musculus [1]) [%] | T/C (Mus musculus [2]) [%] | T/C (Mus musculus [3]) [%] | T/C (Mus musculus [4]) [%] |
| --- | --- | --- | --- | --- |
| CCC1(O)C(=O)OCc2c1cc1n(c2=O)Cc2c-1nc1cc3c(cc1c2CCN)OCO3.O=C(O)C(F)(F)F (stereo not drawn) | 36 | 49 | 65 | 55 |
| CC[C@@]1(O)C(=O)OCc2c1cc1n(c2=O)Cc2cc3c(CN(C)C)c(O)ccc3nc2-1 [TOPOTECAN] | 46 | 51 | 59 | 60 |
